Columns and labels:
[1] = test system: CYP1A2, CYP3A, CYP2D6, CYP2C9, CYP2C19, CYP2B6; assay: Drug interaction studies: effect of upadacitinib on co-administered drugs / in vivo markers of CYP activity (cocktail study); details: for AUC Ratio (90% CI) of co-administered drug, with upadacitinib vs alone / Cmax Ratio (90% CI) of co-administered drug, with upadacitinib vs alone: extended-release
[2] = test system: patients with moderately to severely active rheumatoid arthritis, naive to MTX; assay: Trial RA-I (NCT02706873); type: in vivo, human; details: for CRP / Number of swollen joints (0-66) / Number of tender joints (0-68) / Pain / Patient global assessment / Physician global assessment: mean; for Pain / Patient global assessment / Physician global assessment: visual analog scale 0 = best, 100 = worst
Experimental: The primary endpoint was the proportion of patients who achieved an ACR50 response at Week 12. Key secondary endpoints included disease activity score (DAS28-CRP) ≤3.2 at Week 12, DAS28-CRP <2.6 at Week 24, change from baseline in HAQ-DI at Week 12, and change from baseline in van der Heijde-modified total Sharp Score (mTSS) at Week 24.
Inhibition of progression of structural joint damage was assessed using the modified Total Sharp Score (mTSS) and its components, the erosion score and joint space narrowing score, at Week 26 in Trial RA-IV and Week 24 in Trial RA-I. The proportion of patients with no radiographic progression (mTSS change from baseline […]) was also assessed.

[3] = test system: patients with rheumatoid arthritis; assay: Rheumatoid arthritis Phase 3 trials, integrated datasets (RA-I to RA-V)
Source text: Exposure adjusted incidence rates were adjusted by trial for all the adverse events reported in this section.
Patients 18 years of age and older were eligible to participate. The presence of at least 6 tender and 6 swollen joints and evidence of systemic inflammation based on elevation of hsCRP was required at baseline.

[4] = test system: patients with moderately to severely active rheumatoid arthritis, inadequate response to MTX; assay: Trial RA-II (NCT02706951); type: in vivo, human; details: for CRP / Number of swollen joints (0-66) / Number of tender joints (0-68) / Pain / Patient global assessment / Physician global assessment: Trial RA-II, MTX-IR, monotherapy, mean; for Pain / Patient global assessment / Physician global assessment: visual analog scale 0 = best, 100 = worst; for CRP, mean / Number of swollen joints (0-66), mean / Number of tender joints (0-68), mean / Pain (visual analog scale 0-100), mean / Patient global assessment (visual analog scale 0-100), mean / Physician global assessment (visual analog scale 0-100), mean: RA-II
Source text: The primary endpoint was the proportion of patients who achieved an ACR20 response at Week 14. Key secondary endpoints included DAS28-CRP ≤3.2, DAS28-CRP <2.6, and change from baseline in HAQ-DI at Week 14.

[5] = Baseline, Trial RA-I, MTX-naïve, monotherapy, RINVOQ 15 mg or MTX
[6] = RA-I MTX-naive monotherapy, Week 12, RINVOQ 15 mg or MTX
[7] = RA-I MTX-naive monotherapy, Week 24, RINVOQ 15 mg or MTX
[8] = RA-I, Baseline, RINVOQ 15 mg or MTX
[9] = RA-I, Week 12, RINVOQ 15 mg or MTX
[10] = Week 12 (primary efficacy timepoint), Trial RA-I, MTX-naïve, monotherapy, RINVOQ 15 mg or MTX
[11] = MTX-controlled RA-I and RA-II, 12/14 weeks, 15 mg monotherapy (or MTX monotherapy arm)
[12] = MTX-controlled trials, up to 12/14 weeks, 15 mg (or MTX arm)
[13] = RA-II MTX-IR monotherapy, Week 14, RINVOQ 15 mg or MTX
[14] = Week 14 (primary efficacy timepoint), RINVOQ 15 mg or MTX

## COc1ccc2c(c1)[C@]13CCCC[C@@H]1[C@H](C2)N(C)CC3 [Dextromethorphan]
[1]; upadacitinib 30 mg QD
  AUC Ratio (90% CI) of co-administered drug, with upadacitinib vs alone: 1.07 (0.95-1.22)
  Cmax Ratio (90% CI) of co-administered drug, with upadacitinib vs alone: 1.09 (0.98-1.21)
[1]; upadacitinib 45 mg QD
  AUC Ratio (90% CI) of co-administered drug, with upadacitinib vs alone: 1.35 (1.18-1.54)
  Cmax Ratio (90% CI) of co-administered drug, with upadacitinib vs alone: 1.30 (1.13-1.50)

## Cc1ncc2n1-c1ccc(Cl)cc1C(c1ccccc1F)=NC2 [Midazolam]
[1]; repeated doses of upadacitinib 30 mg
  Decrease in exposure of oral midazolam (sensitive CYP3A4 substrate): 26%
[1]; upadacitinib 30 mg QD
  AUC Ratio (90% CI) of co-administered drug, with upadacitinib vs alone: 0.74 (0.68-0.80)
  Cmax Ratio (90% CI) of co-administered drug, with upadacitinib vs alone: 0.74 (0.68-0.80)
[1]; upadacitinib 45 mg QD
  AUC Ratio (90% CI) of co-administered drug, with upadacitinib vs alone: 0.76 (0.69-0.83)
  Cmax Ratio (90% CI) of co-administered drug, with upadacitinib vs alone: 0.75 (0.69-0.83)

## CN(Cc1cnc2nc(N)nc(N)c2n1)c1ccc(C(=O)N[C@@H](CCC(=O)O)C(=O)O)cc1 [MTX, methotrexate]
[2]; [5]
  mTSS, Mean (SD): 13.3 (31)
  CRP: 21.2 mg/L
  Number of swollen joints (0-66): 17
  Number of tender joints (0-68): 26
  Pain: 66
  Patient global assessment: 66
  Physician global assessment: 69
[2]; [6]
  ACR20 response, patients: 54%
  ACR50 response, patients: 28%
  ACR70 response, patients: 14%
  DAS28-CRP <2.6, patients (proportion of responders): 14%
[2]; [7]
  ACR20 response, patients: 59%
  ACR50 response, patients: 33%
  ACR70 response, patients: 18%
  DAS28-CRP <2.6, patients: 18%
[2]; RA-I monotherapy, Baseline, RINVOQ 15 mg or MTX
  mTSS, Mean (SD): 13.3 (31)
[2]; RA-I monotherapy, Week 24, RINVOQ 15 mg or MTX
  mTSS, mean change from baseline (SD): 0.67 (2.8)
[2]; RA-I through Week 24, 15 mg (or MTX arm)
  Venous thrombosis, number of patients: 1 patients
[2]; [8]
  CRP, mean: 21.2 mg/L
  Number of swollen joints (0-66), mean: 17
  Number of tender joints (0-68), mean: 26
  Pain (visual analog scale 0-100), mean: 66
  Patient global assessment (visual analog scale 0-100), mean: 66
  Physician global assessment (visual analog scale 0-100), mean: 69
[2]; [9]
  CRP, mean: 10.9 mg/L
  Number of swollen joints (0-66), mean: 6
  Number of tender joints (0-68), mean: 13
  Of DAS28-CRP <2.6 responders, proportion with 0 active joints: 51%
  Of DAS28-CRP <2.6 responders, proportion with 1 active joint: 35%
  Of DAS28-CRP <2.6 responders, proportion with 2 active joints: 9%
  Of DAS28-CRP <2.6 responders, proportion with 3 or more active joints: 5%
  Pain (visual analog scale 0-100), mean: 41
  Patient global assessment (visual analog scale 0-100), mean: 42
  Physician global assessment (visual analog scale 0-100), mean: 32
[2]; RA-I, Week 24, RINVOQ 15 mg monotherapy or MTX monotherapy
  Patients with no radiographic progression: 78%
[2]; [10]
  CRP: 10.9 mg/L
  Number of swollen joints (0-66): 6
  Number of tender joints (0-68): 13
  Pain: 41
  Patient global assessment: 42
  Physician global assessment: 32
[2]; Week 24, Trial RA-I, MTX-naïve, monotherapy, RINVOQ 15 mg or MTX
  mTSS, mean change from baseline (SD): 0.67 (2.8)
[3]; [11]
  Infections, number of patients: 127 patients
  Infections, rate: 119.5 per 100 patient-years
  Malignancies excluding NMSC, number of patients: 1 patients
  Malignancies excluding NMSC, rate: 0.8 per 100 patient-years
  Opportunistic infections (excluding tuberculosis), number of patients: 1 patients
  Serious infections, number of patients: 2 patients
  Serious infections, rate: 1.6 per 100 patient-years
[3]; MTX-controlled RA-I and RA-II, 12/14 weeks, MTX monotherapy arm
  Opportunistic infections (excluding tuberculosis), rate: 0.8 per 100 patient-years
[3]; [12]
  ALT elevations ≥3×ULN in at least one measurement, patients: 1.9%
  AST elevations ≥3×ULN in at least one measurement, patients: 0.9%
[3]; RA MTX-controlled period, 15 mg monotherapy (or MTX monotherapy arm)
  Active tuberculosis cases: no active cases
[3]; RA MTX-controlled trials, 12/14 weeks, 15 mg (or MTX arm)
  Gastrointestinal perforations: no cases
[4]; Baseline, RINVOQ 15 mg or MTX
  CRP: 14.5 mg/L
  Number of swollen joints (0-66): 17
  Number of tender joints (0-68): 25
  Pain: 63
  Patient global assessment: 60
  Physician global assessment: 62
  CRP, mean: 14.5 mg/L
  Number of swollen joints (0-66), mean: 17
  Number of tender joints (0-68), mean: 25
  Pain (visual analog scale 0-100), mean: 63
  Patient global assessment (visual analog scale 0-100), mean: 60
  Physician global assessment (visual analog scale 0-100), mean: 62
[4]; [13]
  ACR20 response, patients: 41%
  ACR50 response, patients: 15%
  ACR70 response, patients: 3%
  DAS28-CRP <2.6, patients: 8%
[4]; RA-II through Week 14, 15 mg monotherapy (or MTX monotherapy arm)
  Venous thrombosis, number of patients: 0 patients
[4]; Week 14, RINVOQ 15 mg or MTX
  CRP, mean: 12.8 mg/L
  Number of swollen joints (0-66), mean: 9
  Number of tender joints (0-68), mean: 15
  Pain (visual analog scale 0-100), mean: 49
  Patient global assessment (visual analog scale 0-100), mean: 48
  Physician global assessment (visual analog scale 0-100), mean: 37
[4]; [14]
  CRP: 12.8 mg/L
  Number of swollen joints (0-66): 9
  Number of tender joints (0-68): 15
  Pain: 49
  Patient global assessment: 48
  Physician global assessment: 37
